Values joined by “and” are separate entries in the source; they are usually repeats but may differ in a detail not shown here. Identical values can stand only once.
Columns and labels:
[1] = tested on: Apoprotein E deficient mice; experiment: Plasma lipoprotein cholesterol by gel electrophoresis (Spife; HDL-C, LDL-C, VLDL-C); format: in vivo
Excerpt: (§1) Apoprotein E deficient mice (Jackson Laboratories, 600 Main Street, Bar Harbor, Me.) were used in this study. The mice were male, 7-8 weeks of age, and between 18-20 g in weight. An initial total cholesterol measurement was made on 30 mice, and the mice were grouped into two groups of 15 to match the total cholesterol measurements. Both groups were fed a “western diet” (40 kcal % butterfat, 0.15% [wt/wt] cholesterol, Harlan Teklad diet TD-88137). Starting at t=0, the control group of 15 mice received vehicle only (phosphate buffered saline at pH 7.4), while the test group of 15 mice received aromatic-cationic peptide reconstituted in phosphate buffered saline. Body weights of the mice were recorded weekly, and mortality checks were performed daily.
(§2) The aromatic-cationic peptide D-Arg-2′6′-Dmt-Lys-Phe-NH2 (sterile lyophilized powder, reconstituted in phosphate buffered saline) was tested. For the 12-week study, test mice received a single, daily dose of the peptide, subcutaneously at 1 mg/kg. Control mice received a single daily dose of vehicle.
(§3) Blood was collected every four weeks (orbital plexis) under isoflurane anesthesia (3%) and blood lipids were determined. Plasma lipid analysis was conducted for both groups at t=0, 4, 6, 8, and 12 weeks. Plasma lipid analysis using an autoanalyzer included total cholesterol (TC), triglycerides (Trigs), phospholipids (PL), free cholesterol (FC), and cholesterol ester (CE, by calculation). Gel electrophoresis was used to measure levels of high-density lipoprotein cholesterol (HDL-C), low-density lipoprotein cholesterol (LDL-C), and very low-density lipoprotein cholesterol (VLDL-C).

[2] = tested on: Apoprotein E deficient mice; experiment: Plasma lipid analysis using an autoanalyzer (TC, Trigs, PL, FC, CE by calculation); format: in vivo; design: Plasma Trigs (triglycerides) / Trigs (plasma triglycerides): unit not given beside the values; Plasma CE (cholesterol ester, by calculation) / Plasma PL (phospholipids): unit not given here
Excerpt: as §1, §2, §3

[3] = Week 0 (baseline), group mean of 15 test mice, vehicle group 25
[4] = Week 0 (start of treatment, baseline), individual mouse of peptide group (sample 16-30)
[5] = Week 4, individual test mice (sample # 16-30), listed as aromatic-cationic peptide
[6] = Week 8, individual test mice (sample # 16-30), listed as aromatic-cationic peptide
[7] = Week 12, AVE of test mice 16-30
[8] = Week 12, individual test mice (sample # 16-30), listed as aromatic-cationic peptide
[9] = treated versus vehicle at 4, 8 and 12 week time points

D-Arg-2′6′-Dmt-Lys-Phe-NH2
Plasma HDL-C, AVE [1, 3]: 28 mg/dL
Plasma VLDL-C, AVE [1, 3]: 26 mg/dL
Plasma LDL-C, AVE ([1]; Week 0 (baseline), group mean of 15 test mice, vehicle group 362): 368 mg/dL
Plasma HDL-C [1, 4]: 19 mg/dL and 34 mg/dL and 32 mg/dL and 37 mg/dL and 35 mg/dL and 21 mg/dL and 38 mg/dL and 41 mg/dL and 6 mg/dL and 31 mg/dL and 26 mg/dL and 39 mg/dL and 22 mg/dL and 29 mg/dL and 8 mg/dL
Plasma LDL-C [1, 4]: 258 mg/dL and 260 mg/dL and 307 mg/dL and 245 mg/dL and 268 mg/dL and 295 mg/dL and 304 mg/dL and 474 mg/dL and 287 mg/dL and 352 mg/dL and 380 mg/dL and 481 mg/dL and 410 mg/dL and 432 mg/dL and 773 mg/dL
Plasma VLDL-C [1, 4]: 25 mg/dL (2×) and 23 mg/dL and 37 mg/dL and 20 mg/dL (2×) and 19 mg/dL and 27 mg/dL and 36 mg/dL and 15 mg/dL and 26 mg/dL and 31 mg/dL and 24 mg/dL and 28 mg/dL and 29 mg/dL
HDL-C, Spife (electrophoresis) ([1]; Week 4, AVE of test mice 16-30): 25 mg/dL
LDL-C, Spife (electrophoresis) ([1]; Week 4, AVE of test mice 16-30): 940 mg/dL
VLDL-C, Spife (electrophoresis) ([1]; Week 4, AVE of test mice 16-30): 33 mg/dL
HDL-C, Spife (electrophoresis) [1, 5]: 18 mg/dL and 20 mg/dL (3×) and 0 mg/dL and 13 mg/dL and 7 mg/dL and 23 mg/dL and 32 mg/dL (3×) and 15 mg/dL and 45 mg/dL and 44 mg/dL and 49 mg/dL
LDL-C, Spife (electrophoresis) [1, 5]: 745 mg/dL and 866 mg/dL and 918 mg/dL and 1120 mg/dL and 982 mg/dL and 648 mg/dL and 893 mg/dL and 975 mg/dL and 770 mg/dL and 766 mg/dL and 966 mg/dL and 1147 mg/dL and 874 mg/dL and 1171 mg/dL and 1254 mg/dL
VLDL-C, Spife (electrophoresis) [1, 5]: 35 mg/dL (2×) and 37 mg/dL (2×) and 19 mg/dL and 44 mg/dL (2×) and 18 mg/dL and 23 mg/dL and 39 mg/dL and 41 mg/dL and 28 mg/dL and 31 mg/dL and 30 mg/dL and 32 mg/dL
HDL-C, Spife (electrophoresis) ([1]; Week 8, AVE of test mice 16-30): 32 mg/dL
LDL-C, Spife (electrophoresis) ([1]; Week 8, AVE of test mice 16-30): 1166 mg/dL
VLDL-C, Spife (electrophoresis) ([1]; Week 8, AVE of test mice 16-30): 84 mg/dL
HDL-C, Spife (electrophoresis) [1, 6]: 42 mg/dL and 34 mg/dL and 27 mg/dL and 33 mg/dL and 19 mg/dL (2×) and 8 mg/dL and 45 mg/dL and 16 mg/dL and 32 mg/dL and 41 mg/dL (2×) and 25 mg/dL and 43 mg/dL and 57 mg/dL
LDL-C, Spife (electrophoresis) [1, 6]: 1119 mg/dL and 897 mg/dL and 1392 mg/dL and 1071 mg/dL and 1415 mg/dL and 901 mg/dL and 875 mg/dL and 1378 mg/dL and 922 mg/dL and 856 mg/dL and 1317 mg/dL and 1320 mg/dL and 1025 mg/dL and 1382 mg/dL and 1621 mg/dL
VLDL-C, Spife (electrophoresis) [1, 6]: 101 mg/dL and 73 mg/dL and 86 mg/dL and 79 mg/dL (2×) and 112 mg/dL and 34 mg/dL and 88 mg/dL and 69 mg/dL and 59 mg/dL and 93 mg/dL and 74 mg/dL and 80 mg/dL and 109 mg/dL and 119 mg/dL
HDL-C, Spife (electrophoresis) [1, 7]: 21 mg/dL
LDL-C, Spife (electrophoresis) [1, 7]: 939 mg/dL
VLDL-C, Spife (electrophoresis) [1, 7]: 44 mg/dL
HDL-C, Spife (electrophoresis) [1, 8]: 38 mg/dL and 20 mg/dL (2×) and 10 mg/dL and 41 mg/dL and 21 mg/dL and 5 mg/dL and 31 mg/dL (2×) and 2 mg/dL (2×) and 40 mg/dL and 28 mg/dL and 1 mg/dL and 23 mg/dL
LDL-C, Spife (electrophoresis) [1, 8]: 821 mg/dL and 485 mg/dL and 854 mg/dL and 852 mg/dL and 1328 mg/dL and 693 mg/dL and 611 mg/dL and 692 mg/dL and 962 mg/dL and 896 mg/dL and 1275 mg/dL and 1218 mg/dL and 505 mg/dL and 1203 mg/dL and 1688 mg/dL
VLDL-C, Spife (electrophoresis) [1, 8]: 39 mg/dL and 35 mg/dL and 21 mg/dL (2×) and 43 mg/dL and 71 mg/dL and 32 mg/dL and 33 mg/dL and 26 mg/dL and 63 mg/dL and 76 mg/dL and 36 mg/dL and 30 mg/dL and 83 mg/dL and 46 mg/dL
Plasma LDL-C, in words [1, 9]: reduces
Plasma VLDL-C, in words [1, 9]: reduces
Plasma FC (free cholesterol), AVE ([2]; Week 0 (baseline), group mean of 15 test mice, vehicle group 136): 142
Plasma Trigs (triglycerides), AVE ([2]; Week 0 (baseline), group mean of 15 test mice, vehicle group 141): 140
Plasma CE (cholesterol ester, by calculation), AVE ([2]; Week 0 (baseline), group mean of 15 test mice, vehicle group 275): 280
Plasma PL (phospholipids), AVE ([2]; Week 0 (baseline), group mean of 15 test mice, vehicle group 297): 309
Plasma TC (total cholesterol), AVE ([2]; Week 0 (baseline), group mean of 15 test mice, vehicle group 411): 422
Plasma CE (cholesterol ester, by calculation) [2, 4]: 183 and 197 and 242 and 192 and 207 and 204 and 240 and 366 and 196 and 270 and 297 and 382 and 306 and 331 and 588
Plasma FC (free cholesterol) [2, 4]: 119 and 121 and 134 (2×) and 110 and 116 and 131 and 129 and 184 and 113 and 139 and 170 and 151 and 159 and 220
Plasma PL (phospholipids) [2, 4]: 267 (3×) and 308 and 255 and 306 and 298 and 369 and 238 and 320 and 313 and 332 and 343 and 338 and 413
Plasma TC (total cholesterol) [2, 4]: 302 (2×) and 318 and 376 and 323 and 335 and 369 and 550 and 309 and 409 and 431 and 552 and 457 and 490 and 808
Plasma Trigs (triglycerides) [2, 4]: 75 and 88 (3×) and 117 and 96 and 71 and 138 and 167 and 136 and 151 and 191 and 188 and 154 and 353
CE (plasma cholesterol ester) ([2]; Week 4, AVE of test mice 16-30): 610
FC (plasma free cholesterol) ([2]; Week 4, AVE of test mice 16-30): 387
PL (plasma phospholipid) ([2]; Week 4, AVE of test mice 16-30): 514
TC (plasma total cholesterol) ([2]; Week 4, AVE of test mice 16-30): 997
Trigs (plasma triglycerides) ([2]; Week 4, AVE of test mice 16-30): 58
CE (plasma cholesterol ester) [2, 5]: 491 and 580 and 622 and 731 and 626 and 417 and 574 and 660 and 515 and 536 and 630 and 761 and 581 and 732 and 701
FC (plasma free cholesterol) [2, 5]: 308 and 344 and 354 (2×) and 408 and 412 and 256 and 366 and 386 and 320 and 286 and 396 and 462 and 516 and 636
